Reference: patent publication US20160015703A1, “NANO- MIC[…] FOR […] OF AN ACTIVE INGREDIENT” (Danmarks Tekniske Universitet, priority 2013, published 2016)

Test: in vitro
Conditions: human

## CN1CCCC1c1cccnc1 (stereo not shown) [HBSS with nicotine, nicotine]
  Papp: 8.5 ×10⁻⁶ cm/s
